Test results from patent US20240284907A1, “NOVEL DERIVATIVES OF NON-CODED AMINO ACIDS AND THEIR USE AS HERBICIDES” (FortePhest LTD., priority 2021, published 2024).

Tested on: Seeds of Lettuce R. (Super-Jericho)
Assay: Filter paper bioassay with lettuce seeds: germination and early plant development, Minimal Effective Concentration (MEC)
Type: in vivo
Conditions: lettuce seeds on filter paper, 0 to 1 mmol/l, visually assessed after 6 days
Description: Materials: Seeds of Lettuce R. (Super-Jericho, non-sterilized) were obtained from Ben Shahar Moshe Ltd., 99% purity. The test compounds listed in the Table 2 below were synthetized de novo or purchased from different vendors.
Filter Paper Bioassays with Lettuce seeds: The protocol is following Bertin et al. 2009 and Movellan et al. 2014 with specified modifications as described below.
Seeds were placed on Whatman no. 1 filter paper (Whatman, Middlesex, U.K.) in Petri dishes (10 seeds per plate) with 2.0 ml of aqueous solution of a test material in concentration ranged from 0 (control) to 1 mmol/l were placed in a tray tilted at 45[…]. The trays were kept in dark for 48 hours and then transferred to the growth chamber with 6/18 dark/light cycle for 4 days. Each experiment was performed at least with two repeats.
The development of plants' radicle and shoots were visually assessed 6 days after the beginning of the test to determine Minimal Effective Concentration (MEC) of a test material. In the context of the invention, MEC is defined as the lowest concentration level of a test material that caused deviation (absence of germination or malformation of radicle or shoots) from the plant's development in the Control group.

Substance | Score (activity score of Minimal Effective Concentration, MEC)
2,2-difluoro-2-[4-(trifluoromethyl)pyrimidin-2-yl]acetic acid [compound 6652] | Moderate (0.1 mM)
2,2-difluoro-2-{2-[3-fluoro-5-(trifluoromethyl)pyridin-2-yl]-1,3-thiazol-4-yl}acetic acid [compound 5736] | Moderate (0.1 mM)
2,2-difluoro-2-{6-[2-(trifluoromethyl)-1,3-thiazol-4-yl]pyridin-2-yl}acetic acid [compound 6658] | Moderate (0.1 mM)
2-(1,2,3-thiadiazol-4-yl)acetic acid [compound 5748] | Moderate (0.1 mM)
2-(1H-1,2,4-triazol-5-yl)ethan-1-amine [compound 592] | weak
2-(2,5-dichloro-1,3-thiazol-4-yl)ethan-1-amine [compound 5691] | Strong (0.01 mM)
2-(2,5-dichlorothiophen-3-yl)-2-oxoacetic acid [compound 5631] | Weak (Higher than 0.1 mM)
2-(2,6-dibromopyridin-4-yl)ethan-1-amine [compound 6612] | Moderate (0.1 mM)
2-(2,6-dichloropyridin-4-yl)-2,2-difluoroacetic acid [compound 6628] | Weak (Higher than 0.1 mM)
2-(2-bromopyridin-4-yl)ethan-1-amine [compound 688] | Weak (Higher than 0.1 mM)
2-(2-chloro-1,3-benzothiazol-4-yl)-2,2-difluoroacetic acid [compound 5786] | Moderate (0.1 mM)
2-(2-ethoxyethoxy)ethyl(2-chloro-1,3-thiazol-4-yl)acetate [compound 5800] | Strong (0.01 mM)
2-(2-phenoxypyridin-4-yl)ethan-1-amine [compound 6625] | Weak (Higher than 0.1 mM)
2-(3-chloro-1,2-thiazol-4-yl)-2,2-difluoroacetic acid [compound 5773] | Moderate (0.1 mM)
2-(4-methylphenyl)-2-oxoethyl(2-chloro-1,3-thiazol-4-yl)acetate [compound 5795] | Moderate (0.1 mM)
2-(6-bromopyridin-3-yl)-2,2-difluoroacetic acid [compound 6620] | Strong (0.01 mM)
2-(6-bromopyrimidin-4-yl)ethan-1-amine [compound 6621] | Strong (0.01 mM)
2-(thiophen-3-yl)ethane-1-thiol [compound 5601] | Moderate (0.1 mM)
2-[2-(2,5-dichlorothiophen-3-yl)ethyl]-1,4,5,6-tetrahydropyrimidin-5-ol [compound 5777] | Weak (Higher than 0.1 mM)
2-[2-(4-chloro-2-fluorophenyl)-1,3-thiazol-4-yl]-2,2-difluoroacetic acid [compound 5734] | Moderate (0.1 mM)
2-amino-2-(2,5-dichlorothiophen-3-yl)acetic acid [compound 5659] | Weak (Higher than 0.1 mM)
2-amino-3-(1H-1,2,4-triazol-1-yl)propanoic acid dihydrochloride [compound 5633, 2-amino-3-(1H-1,2,4-triazol-1-yl)propanoic acid dihydrochloride [HCl]] | Strong (0.01 mM)
